Patent US20080255121A1, “Combination Drug for Treating Autoimmune Disease” (DAINIPPON SUMITOMO PHARMA CO., LTD., priority 2004, published 2008)
“Also recorded” adds a separate entry of the source.

Key:
[1] = test system: human CaMKII γ; assay: Examination of CaMKII inhibitory activity (2); type: biochemical
Protocol: Test substances were dissolved in DMSO and diluted to various concentrations with a buffer solution (50 mM Tris-HCl: pH 7.5, 10 mM MgCl2, 1 mM Dithiothreitol (DTT)) (all of them are available from Nacalai Tesque, Inc.) for CaMKII reaction. CaMKIIα (final concentration 0.75 μg/ml) (Santa Cruz, Inc.) derived from rat was mixed with Autocamtide-2® (40 μM) (CALBIOCHEM Company) dissolved in CaMKII reaction buffer solution in the presence of the test substance and with CaMKII activation buffer solution (1 mMCaCl2, 1 μM calmodulin) (Nacalai Tesque, Inc.) and the reaction was started by further adding ATP (50 μM) (Nacalai Tesque, Inc.). The reaction was performed at 30° C. for five minutes and then SDS-PAGE sample buffer solution was added and the reaction was terminated by boiling for five minutes. Proteins in the reaction mixture were separated by 15% SDS-PAGE and blotted onto a PVDF membrane. Phosphorus taken in by Autocamtide-2 was reacted with an anti-phosphorylated serine/threonine antibody (Santa Cruz, Inc.) and quantified by ECL system (Amersham, Inc.) and NIH Image (downloadable from http://rsb.info.nih.gov/nih-image/).
CaMKII γ gene was prepared by PCR method using two kinds of primers (5′-TC GGATCCAGCATGGCCACCACCGCCACCTG-3′ [SEQ ID NO 4] and 5′-TA GAATTCACACTGCAGCGGTGCGGCAGG [SEQ ID NO 5]) synthesized based on the sequence of GenBank Accession No. L07044 and cDNA derived from cultured cells (JurketT cells) prepared by a conventional method as a template. The CaMKII γ gene was excised by BamHI and EcoRI and introduced into the MCS of pFastBacl transfer vector. Expression virus was prepared and amplified based on this vector. The details followed the manual of Bac-to-Bac baculovirus expression system (Invitrogen, Inc.). Expressed CaMKII γ was purified in accordance with the method described in literature (Biochemical & Biophysical Research Communications, 173(2): 578-84, 1990). That is, expression cells were pulverized by supersonic wave and preparation was performed by affinity refinement with calmodulin sepharose (Amasham Biosciences, Inc.) from cell soluble fraction obtained by centrifugal operation via ammonium sulfate fraction of final concentration of 60%. Confirmation of expression was performed by Western blotting method using anti-CaMKII γ specific antibody, sc1541 (Santa Cruz, Inc.).
CaMKII γ inhibitory activity of test substances were measured in the same conditions as in Example 1 except human CaMKII γ prepared by the above procedure was used in place of CaMKII α derived from rat.

[2] = test system: EL-4 cells; assay: IL-2 production when T-lymphocytes were stimulated with PMA and A23187; type: cell-based, mouse; conditions: Compound (I) 1 to 30 μM, KN-93 1 to 10 μM; 20 hours; FIG. 1
Protocol: Effects of Compound (I) and KN-93 on IL-2 production when T-lymphocytes were stimulated with Phorbol 12-myristate 13-acetate (PMA) and Calcium Ionophore A23187 were evaluated.
EL-4 cells (mouse T-lymphocyte cell line) were cultured in Dulbecco's Modified Eagle Medium (DMEM: GIBCO, Inc.) containing 10% fetal bovine serum and subjected to the experiment. The cells were disseminated in 96-well plate in a ratio of 5×10^4 cells/well and a DMEM medium containing the test substance and a DMEM medium containing PMA and A23187 as a stimulant were added and incubated for 20 hours. The concentration was adjusted so that the final concentrations of the test substances and stimulants were 1 to 30 μM for Compound (I), 1 to 10 μM for KN-93, 25 ng/ml for PMA and 250 ng/ml for A23187. The plate was centrifuged after incubation and the supernatant was collected with micropipette. The concentration of IL-2 in the supernatant was quantified by Enzyme-linked Immunosorbent Assay (ELISA) method. The quantitative method was carried out in accordance with the instructions attached to the kit (MOUSE IL-2 Immunoassay, R & D Systems).

[3] = test system: SW982 cells; assay: Proliferation of human synovial cells (Alamar Blue); type: cell-based; conditions: Compound (I) 1 to 30 μM, KN-93 1 to 30 μM; FIG. 4
Protocol: Effects of Compound (I) and KN-93 on the proliferation of SW982 cells (human synovial cell line) were evaluated.
SW982 cells (human synovial cell line; obtained from ATCC) was cultured in a FCS (product of SIGMA, Inc.) containing DMEM medium (product of GIBCO, Inc.) and subjected to the experiment. SW982 was disseminated in 96-well flat bottom plate in the absence of serum in a ratio of 4×10^4 cells/well. Compounds were added at the same time of the dissemination of the cells and incubated at 200 μl cells/well. 20 μl of Alamar Blue® was added to each well (BIOSOURCE, Inc.) after 18 hours and incubated for further six hours and the absorbance of each well was measured with a microplate reader. The absorbance was measured at two wavelengths of 570 nm and 600 nm.

[4] = test system: osteoclasts; assay: Formation of osteoclasts from cells of collagen arthritis mouse leg (TRAP staining); type: cell-based; conditions: Compound (I) 0.5 to 20 μM, KN-93 0.3 to 5 μM; nine days; FIG. 5
Protocol: Effects of Compound (I) and KN-93 on the formation of osteoclasts were evaluated.
A mouse leg affected with developed collagen arthritis was removed and treated in an α-MEM culture medium (GIBCO, Inc.) containing 10% fetal bovine serum in the presence of dispase (Godo Shuzo) and collagenase S1 (Nitta Gelatin Inc.) at 37° C. for five to six hours and monodisperse cell suspended liquid was collected. This sample was centrifuged, rinsed by resuspension and subjected to the experiment. The cells were disseminated in 96-well plate in a ratio of 2×10^4 cells/well, an α-MEM medium containing the test compound was added thereto and incubated for nine days. After the incubation, osteoclasts were stained with a kit (Sigma, Inc.) for TRAP staining and the number of the osteoclasts per well was measured by microscopic observation. The TRAP staining was carried out in accordance with instructions attached to the kit.

[5] = test system: adjuvant-induced arthritis rats; assay: Combination effect on adjuvant-induced arthritis, joint destruction score by soft X-ray (Example 20); type: in vivo, rat
Protocol: Combination effect for adjuvant-induced arthritic rats was examined in the same manner as in Example 17.
Euthanasia was carried out for all the rats by aspiration of high concentration carbon dioxide after the last administration. Both the hind paws were cut off at the middle point of […]. Both the hind paws were fixed with 10% neutral buffered formalin liquid. […] The degree of joint destruction was recorded with a score. Observed sites were three points of the tibia, calcaneum and tarsal bone, and the possible maximum score was 12.
1: Minimum destruction of joints and bones and new formation of cartilages
2: Mild destruction of joints and bones and new formation and light ossification of cartilages
3: Moderate destruction of joints and bones and ossification
4: Severe destruction and deformation of joints and bones and intense ossification

SMILES | concentration with an effect of inhibiting the activity of CaMKII [1] [µM] | Inhibition rate (%) ([1]; Concentration 1 μm) | Inhibition rate (%) ([1]; Concentration 10 μm) | Inhibition rate (%) ([1]; Concentration 30 μm) | production of IL-2 [2] | proliferation of SW982 cells [3] | formation of osteoclasts [4] | joint destruction score of the left hind paw, representative individual which showed an average score in the group ([5]; Compound (I) 40 mg/kg and/or methotrexate 0.06 mg/kg, control score 3, maximum 12) | joint destruction score of the right hind paw, representative individual which showed an average score in the group ([5]; Compound (I) 40 mg/kg and/or methotrexate 0.06 mg/kg, control score 10, maximum 12) | joint destruction of right and left hind paws ([5]; Compound (I) 20, 40, 80 mg/kg in combination with methotrexate 0.06 mg/kg, 17 days) | joint destruction of right and left hind paws ([5]; only Compound (I) 20, 40, 80 mg/kg oral once a day 17 days)
C[C@@H](c1ccc(-c2ccccc2)c(F)c1)c1cc(/N=C(/N)N2CCOCC2)on1 [Compound (I), 3-[(1S)-1-(2-fluorobiphenyl-4-yl)ethyl]-5-{[amino(morpholin-4-yl)methylene]amino}isoxazole] | ≥ 10 | 7 | 33 | 57 | suppressed production of IL-2 dose-dependently | dose-dependently suppressed the proliferation of human synovial cells; also recorded: almost completely suppressed | dose-dependently suppressed the formation of osteoclasts | 1 | 5 | dose-dependently and conspicuously enhanced joint destruction suppressing effect of methotrexate | dose-dependently showed joint destruction suppressing effect
COc1ccc(S(=O)(=O)N(CCO)c2ccccc2CN(C)C/C=C/c2ccc(Cl)cc2)cc1 [KN-93, N-(2-[N-[4-chlorocinnamyl]-N-methylaminomethyl]phenyl)-N-(2-hydroxyethyl)-4-methoxybenzenesulfonamide, reference compound] | ≥ 1 | 27 | 101 | 107 | suppressed production of IL-2 dose-dependently | dose-dependently suppressed the proliferation of human synovial cells; also recorded: almost completely suppressed | dose-dependently suppressed the formation of osteoclasts |  |  |  | 
